According to US10398751B2, “Pharmaceutical compositions of water soluble peptides with poor solubility in isotonic conditions and methods for their use” (STRONGBRIDGE IRELAND LIMITED, priority 2016, dated 2019):
Values joined by “and” are separate entries in the source; they are usually repeats but may differ in a detail not shown here. Equal entries are not always repeated. Structures can show the parent of a compound that is named as a salt.

Columns and labels:
[1] = Density, pH and surface tension of solutions (capillary method); format: physicochemical
Method: Tween 80 was used as a control surfactant for comparison. Densities were measured on 1 mL fixed volume samples. […] The effect of veldoreotide acetate on the pH of double distilled water (DDW) was the same at all veldoreotide acetate concentrations. The pH of DDW of 5.0 was reduced to pH 4.5. The effect of veldoreotide acetate on the density of DDW (starting density of DDW was 1.003 g/ml) was concentration dependent from 1.4 mg/ml to 21.5 mg/ml with density ranging from 0.986 to 0.998 g/ml respectively. However, at veldoreotide acetate concentrations of 45 and 102 mg/ml the density was increased above the starting density of DDW. […] The effect of veldoreotide acetate on the surface tension of DDW (starting surface tension was 64.9 dyne/cm) was consistent with veldoreotide acetate behaving as a peptide amphiphile (surfactant). The surface tension of DDW was reduced by veldoreotide acetate at maximum from 64.9 to 45 dyne/cm. In order to elucidate the meaning of this effect, Tween 80 was used as a reference surfactant. Other surfactants include Polexamer 188. The reduction of surface tension induced by Tween 80 was in the range of 40% (from 64.9 dyne/cm to about 39 dyne/cm), in comparison to veldoreotide acetate of 30% (from 64.9 dyne/cm to about 45 dyne/cm). Note that, under these experimental conditions; the effect of Tween 80 indicated a concentration-effect relationship. Whereas, the effect of veldoreotide acetate on the reduction of surface tension was at the same range for all concentrations tested.
The data of table 4 show the surface activity of highly concentrated COR005 acetate (200 mg/ml), with or without additives in WFI, which emulates the preparation conditions of the primary emulsion of the microspheres. The results of Test 1 and 2 (Table 4) show the effect of COR005 acetate on the surface tension of water. When COR005 acetate is dissolved in water the surface tension is reduced by about 36%, from 68.5 dyne/cm for the water alone to 44 dyne/cm for the solution of water with CR005 acetate at 200 mg/ml.

[2] = Pharmacokinetics of IR formulations in minipigs; format: in vivo; conditions: minipig, plasma, sc; for AUC(0-t) / Tmax: minipigs
[3] = tested on: human Carcinoid cell line; experiment: Chromogranin A release; format: cell-based
[4] = tested on: human lymphocytes; experiment: Human peripheral blood lymphocytes proliferation assays; format: cell-based
[5] = Solubility and surface activity in PBS under physiological conditions (37° C.); format: physicochemical; conditions: PBS pH 7.4, 37° C., COR005 10 mg/ml
Method: Table 6 summarizes the effects of additives on the surface activity profile of COR005 acetate under physiological conditions (37° C.) that emulate the release of COR005 at the injection site.

[6] = 1.4 mg/ml in DDW pH 4.5, 25° C.
[7] = 102 mg/ml in DDW pH 4.5, 25° C.
[8] = 200 mg/ml + 50 mg/ml HPBCD in WFI (HPB:PEP 1:4), 5° C.
[9] = 200 mg/ml + 100 mg/ml HPBCD in WFI (HPB:PEP 1:2), 5° C.
[10] = 200 mg/ml in 5% Dextrose in WFI (DEX:PEP 1:8), 5° C.
[11] = 0.1 mg/kg, IR, SC 0.1 mg/Kg, DEX:PEP 5:1 saline
[12] = 0.1 mg/kg, IR, SC 0.1 mg/Kg, Lactic acid buffer
[13] = 0.4 mg/kg, IR, SC 0.4 mg/Kg, DEX:PEP 5:1 saline
[14] = 0.4 mg/kg, IR, SC 0.4 mg/Kg, HPB:PEP 15:1 saline
[15] = 0.4 mg/kg, IR, SC 0.4 mg/Kg, Lactic acid buffer

C[C@@H](O)[C@@H]1NC(=O)[C@H](CCCCN)NC(=O)[C@@H](Cc2c[nH]c3ccccc23)NC(=O)[C@H](Cc2c[nH]c3ccccc23)NC(=O)[C@H](Cc2ccccc2)NC(=O)CCCNC(=O)CCCN(CC(N)=O)C(=O)[C@H](Cc2ccccc2)NC1=O [Veldoreotide Acetate, Cyclo(-γ-aminobutyryl-L-phenylalanyl-L-tryptophanyl-D-tryptophanyl-L-lysyl-L-threonyl-L-phenylalanyl-N-carbamoylmethyl-γ-aminobutyryl), acetate salt]
% change in surface tension compared to baseline [1, 6]: −30% | Density (g/ml) Weighted 1 ml [1, 6]: 0.986 g/mL | Surface tension (dyne/cm) capillary method [1, 6]: 45.2 dyne/cm | density of DDW solution ([1]; 1.4 mg/ml to 21.5 mg/ml, starting density of DDW 1.003 g/ml): 0.986 to 0.998 g/mL | % change in surface tension compared to baseline ([1]; 12 mg/ml in DDW pH 4.5, 25° C.): −28% | Density (g/ml) Weighted 1 ml ([1]; 12 mg/ml in DDW pH 4.5, 25° C.): 0.994 g/mL | Surface tension (dyne/cm) capillary method ([1]; 12 mg/ml in DDW pH 4.5, 25° C.): 46.9 dyne/cm | % change in surface tension compared to baseline ([1]; 21 mg/ml in DDW pH 4.5, 25° C.): −27% | Density (g/ml) Weighted 1 ml ([1]; 21 mg/ml in DDW pH 4.5, 25° C.): 0.998 g/mL | Surface tension (dyne/cm) capillary method ([1]; 21 mg/ml in DDW pH 4.5, 25° C.): 47.1 dyne/cm | % change in surface tension compared to baseline ([1]; 45 mg/in DDW pH 4.5, 25° C.): −29% | Density (g/ml) Weighted 1 ml ([1]; 45 mg/in DDW pH 4.5, 25° C.): 1.003 g/mL | Surface tension (dyne/cm) capillary method ([1]; 45 mg/in DDW pH 4.5, 25° C.): 45.97 dyne/cm | % change in surface tension compared to baseline [1, 7]: −24% | Density (g/ml) Weighted 1 ml [1, 7]: 1.015 g/mL | Surface tension (dyne/cm) capillary method [1, 7]: 49.3 dyne/cm | % change in surface tension compared to baseline [1, 8]: −34% | Density (g/ml) Weighted 1 ml [1, 8]: 1.04 g/mL | Surface tension (dyne/cm) capillary method [1, 8]: 45 dyne/cm | % change in surface tension compared to baseline [1, 9]: −26% | Density (g/ml) Weighted 1 ml [1, 9]: 1.12 g/mL | Surface tension (dyne/cm) capillary method ([1]; 200 mg/ml + 100 mg/ml HPBCD in WFI (HPB:PEP 1:2), 5° C., acetate salt): 51 dyne/cm | Surface tension (dyne/cm) capillary method ([1]; 200 mg/ml + 100 mg/ml HPBCD in WFI (HPB:PEP 1:2), 5° C., listed as peptide, acetate salt): 52 dyne/cm and 51 dyne/cm | % change in surface tension compared to baseline [1, 10]: −14% | Density (g/ml) Weighted 1 ml [1, 10]: 1.03 g/mL | Surface tension (dyne/cm) capillary method ([1]; 200 mg/ml in 5% Dextrose in WFI (DEX:PEP 1:8), 5° C., acetate salt): 54 dyne/cm | Surface tension (dyne/cm) capillary method ([1]; 200 mg/ml in 5% Dextrose in WFI (DEX:PEP 1:8), 5° C., listed as peptide, acetate salt): 54 dyne/cm | Density (g/ml) Weighted 1 ml ([1]; 200 mg/ml in WFI, 5° C.): 1.03 g/mL | Surface tension (dyne/cm) capillary method ([1]; 200 mg/ml in WFI, 5° C.): 44 dyne/cm | % change in surface tension compared to baseline ([1]; 200 mg/ml in WFI, 5° C., acetate salt): −36% | % change in surface tension compared to baseline ([1]; 200 mg/ml in WFI, 5° C., listed as COR005 acetate, acetate salt): about 36% | surface tension of DDW solution ([1]; DDW pH 5.0, 25° C., baseline 64.9 dyne/cm (text summary, concentration not specified), acetate salt): about 45 dyne/cm | reduction of surface tension of water ([1]; DDW, 25° C., baseline 64.9 dyne/cm, acetate salt): 30% | pH of DDW solution ([1]; all concentrations, DDW pH 5.0 before): 4.5 | Cmax ([2]; 0.1 mg/kg, IR, SC, 0.1 mg/Kg, DEX:PEP 5:1 saline): 53 ng/mL | AUC(0-t) [2, 11]: 53 ng·h/mL | Tmax [2, 11]: 60 min | AUC(0-t) [2, 12]: 26 ng·h/mL | Tmax [2, 12]: 30 min | Cmax ([2]; 0.1 mg/kg, pH 4, IR, Lactic acid buffer pH 4): 29 ng/mL | AUC(0-t) [2, 13]: 205 ng·h/mL | Tmax [2, 13]: 30 min | AUC(0-t) [2, 14]: 198 ng·h/mL | Tmax [2, 14]: 15 min | AUC(0-t) [2, 15]: 161 ng·h/mL | Tmax [2, 15]: 60 min | Chromogranin A release [3]: inhibits | mitogenicity for human lymphocytes [4]: non-mitogenic | Surface tension (dyne/cm) ([5]; HPB:PEP 1:4): 39 dyne/cm | Surface tension (dyne/cm) ([5]; no additive): 34 dyne/cm
